How the values were obtained:
Assay type in all cases: in vivo
Kochia (Kochia scoparia) [1] = experiment: Test A preemergence
Description: (§1) Seeds of plant species selected from barnyardgrass (Echinochloa crus-galli), Kochia (Kochia scoparia), ragweed (common ragweed, Ambrosia elatior), ryegrass, Italian (Italian ryegrass, Lolium multiflorum), crabgrass, large (Digitaria sanguinalis), giant foxtail (Setaria faberii), green foxtail (Setaria viridis), morningglory (Ipomoea spp.), pigweed (Amaranthus retroflexus), velvetleaf (Abutilon theophrasti), wheat (Triticum aestivum), and corn (Zea mays) were planted into a blend of loam soil and sand and treated preemergence with a directed soil spray using test chemicals formulated in anon-phytotoxic solvent mixture which included a surfactant.
(§2) At the same time, plants selected from these crop and weed species and also blackgrass (Alopecurus myosuroides), and Galium (catchweed bedstraw, Galium aparine) were planted in pots containing the same blend of loam soil and sand and treated with postemergence applications of test chemicals formulated in the same manner. Plants ranged in height from 2 to 10 cm and were in the one- to two-leaf stage for the postemergence treatment. Treated plants and untreated controls were maintained in a greenhouse for approximately 10 d, after which time all treated plants were compared to untreated controls and visually evaluated for injury. Plant response ratings, summarized in Table A, are based on a 0 to 100 scale where 0 is no effect and 100 is complete control. A dash (-) response means no test result.

[2] = test system: barnyardgrass (Echinochloa crus-galli); experiment: Test A preemergence
Description: as §1, §2

[3] = test system: giant foxtail (Setaria faberii); experiment: Test A preemergence
Description: as §1, §2

[4] = test system: pigweed (Amaranthus retroflexus); experiment: Test A preemergence
Description: as §1, §2

[5] = test system: ragweed (common ragweed, Ambrosia elatior); experiment: Test A preemergence
Description: as §1, §2

[6] = test system: ryegrass, Italian (Italian ryegrass, Lolium multiflorum); experiment: Test A preemergence
Description: as §1, §2

[7] = test system: Galium (catchweed bedstraw, Galium aparine); experiment: Test A postemergence
Description: as §1, §2

Kochia (Kochia scoparia) [8] = experiment: Test A postemergence
Description: as §1, §2

[9] = test system: barnyardgrass (Echinochloa crus-galli); experiment: Test A postemergence
Description: as §1, §2

[10] = test system: blackgrass (Alopecurus myosuroides); experiment: Test A postemergence
Description: as §1, §2

corn (Zea mays) = experiment: Test A postemergence
Description: as §1, §2

[11] = test system: giant foxtail (Setaria faberii); experiment: Test A postemergence
Description: as §1, §2

[12] = test system: pigweed (Amaranthus retroflexus); experiment: Test A postemergence
Description: as §1, §2

[13] = test system: ragweed (common ragweed, Ambrosia elatior); experiment: Test A postemergence
Description: as §1, §2

[14] = test system: ryegrass, Italian (Italian ryegrass, Lolium multiflorum); experiment: Test A postemergence
Description: as §1, §2

[15] = test system: wheat (Triticum aestivum); experiment: Test A postemergence
Description: as §1, §2

[16] = test system: barnyardgrass (Echinochloa crus-galli); experiment: Test B flooded paddy test; conditions: Flood, 250 g ai/ha; 0 to 100 scale where 0 is no effect and 100 is complete control; 13 to 15 d
Summary of the method: (§3)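 2-leaf plants; pots flooded 3 cm over soil; cpd added to paddy water; depth held; greenhouse 13–15 d; visual rating vs controls, 0 = no effect, 100 = complete control.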

[17] = test system: ducksalad (Heteranthera limosa); experiment: Test B flooded paddy test; conditions: Flood, 250 g ai/ha; 0 to 100 scale where 0 is no effect and 100 is complete control; 13 to 15 d
Summary of the method: as §3

rice (Oryra sativa) = experiment: Test B flooded paddy test; conditions: Flood, 250 g ai/ha; 0 to 100 scale where 0 is no effect and 100 is complete control; 13 to 15 d
Summary of the method: as §3

[18] = test system: sedge, umbrella (small-flower umbrella sedge, Cyperus difformis); experiment: Test B flooded paddy test; conditions: Flood, 250 g ai/ha; 0 to 100 scale where 0 is no effect and 100 is complete control; 13 to 15 d
Summary of the method: as §3

[19] = 125 g ai/ha, Preemergence, visual injury after approximately 10 d, 0 to 100 scale where 0 is no effect and 100 is complete control
[20] = Preemergence, 500 g ai/ha, visual injury approx. 10 d
[21] = 125 g ai/ha, postemergence, visual rating after approx. 10 d, 0 to 100 scale (0 no effect, 100 complete control)
[22] = Postemergence, 500 g ai/ha, 0 to 100 scale where 0 is no effect and 100 is complete control
[23] = 500 g ai/ha, preemergence, 0 to 100 scale, 0 = no effect, 100 = complete control
[24] = 500 g ai/ha, postemergence, visual injury, 0 to 100 scale (0 no effect, 100 complete control), approx. 10 d

Structure (SMILES)	Plant response rating, Kochia (Kochia (Kochia scoparia) [1]; [19])	Plant response rating, Barnyardgrass [2, 19]	Plant response rating, Foxtail, Giant [3, 19]	Plant response rating, Pigweed [4, 19]	Plant response rating, Ragweed [5, 19]	Plant response rating, Ryegrass, Italian [6, 19]	Plant response rating, Galium [7, 21]	Plant response rating, Kochia (Kochia (Kochia scoparia) [8]; [21])	Plant response rating, Barnyardgrass [9, 21]	Plant response rating, Blackgrass [10, 21]	Plant response rating, Corn (corn (Zea mays); [21])	Plant response rating, Foxtail, Giant [11, 21]	Plant response rating, Pigweed [12, 21]	Plant response rating, Ragweed [13, 21]	Plant response rating, Ryegrass, Italian [14, 21]	Plant response rating, Wheat [15, 21]	Plant response rating, Barnyardgrass [16]	Plant response rating, Ducksalad [17]	Plant response rating, Rice (rice (Oryra sativa))	Plant response rating, Sedge, Umbrella [18]	other results
O=C1NCC(c2cc(F)c(F)cc2F)C1C(=O)Nc1cccc(F)c1F (racemic) [Compound 550]	0	40	90	0	0	0	0	0	80	0	0	80	0	0	0	0	55	95	50	0	Kochia plant response rating (0 to 100 scale, 0 is no effect, 100 is complete control) (Kochia (Kochia scoparia) [1]; [20]): 40; Barnyardgrass plant response rating (0 to 100 scale, 0 is no effect, 100 is complete control) [2, 20]: 90; Foxtail, Giant plant response rating (0 to 100 scale, 0 is no effect, 100 is complete control) [3, 20]: 90; Pigweed plant response rating (0 to 100 scale, 0 is no effect, 100 is complete control) [4, 20]: 0; Ragweed plant response rating (0 to 100 scale, 0 is no effect, 100 is complete control) [5, 20]: 0; Ryegrass, Italian plant response rating (0 to 100 scale, 0 is no effect, 100 is complete control) [6, 20]: 20; Plant response rating, Galium [7, 22]: 60; Plant response rating, Kochia (Kochia (Kochia scoparia) [8]; [22]): 50; Plant response rating, Barnyardgrass [9, 22]: 90; Plant response rating, Blackgrass [10, 22]: 50; Plant response rating, Corn (corn (Zea mays); [22]): 20; Plant response rating, Foxtail, Giant [11, 22]: 90; Plant response rating, Pigweed [12, 22]: 0; Plant response rating, Ragweed [13, 22]: 0; Plant response rating, Ryegrass, Italian [14, 22]: 20; Plant response rating, Wheat [15, 22]: 30
Cc1cc(C2CNC(=O)C2C(=O)Nc2cccc(F)c2F)cs1 (racemic) [Compound 656]	60	90	90	30	20	30	0	20	90	0	0	20	0	0	0	0	50	100	0	0	Plant response rating, Kochia (Kochia (Kochia scoparia) [1]; [23]): 50; Plant response rating, Barnyardgrass [2, 23]: 90; Plant response rating, Foxtail, Giant [3, 23]: 90; Plant response rating, Pigweed [4, 23]: 40; Plant response rating, Ragweed [5, 23]: 60; Plant response rating, Ryegrass, Italian [6, 23]: 60; Plant response rating, Galium [7, 24]: 60; Plant response rating, Kochia (Kochia (Kochia scoparia) [8]; [24]): 30; Plant response rating, Barnyardgrass [9, 24]: 90; Plant response rating, Blackgrass [10, 24]: 30; Plant response rating, Corn (corn (Zea mays); [24]): 20; Plant response rating, Foxtail, Giant [11, 24]: 60; Plant response rating, Pigweed [12, 24]: 0; Plant response rating, Ragweed [13, 24]: 0; Plant response rating, Ryegrass, Italian [14, 24]: 0; Plant response rating, Wheat [15, 24]: 20
CCc1cc(C2CNC(=O)C2C(=O)Nc2ccccc2F)cs1 (racemic) [Compound 657]	20	90	90	20	20	20	0	0	90	0	0	0	0	0	0	0	40	100	0	0	Plant response rating, Kochia (Kochia (Kochia scoparia) [1]; [23]): 40; Plant response rating, Barnyardgrass [2, 23]: 90; Plant response rating, Foxtail, Giant [3, 23]: 90; Plant response rating, Pigweed [4, 23]: 30; Plant response rating, Ragweed [5, 23]: 20; Plant response rating, Ryegrass, Italian [6, 23]: 30; Plant response rating, Galium [7, 24]: 30; Plant response rating, Kochia (Kochia (Kochia scoparia) [8]; [24]): 0; Plant response rating, Barnyardgrass [9, 24]: 90; Plant response rating, Blackgrass [10, 24]: 30; Plant response rating, Corn (corn (Zea mays); [24]): 0; Plant response rating, Foxtail, Giant [11, 24]: 60; Plant response rating, Pigweed [12, 24]: 0; Plant response rating, Ragweed [13, 24]: 0; Plant response rating, Ryegrass, Italian [14, 24]: 0; Plant response rating, Wheat [15, 24]: 0
CCc1cc(C2CNC(=O)C2C(=O)Nc2cccc(F)c2F)cs1 (racemic) [Compound 658]	0	90	90	0	50	0	60	0	70	40	0	0	0	0	30	0	50	100	0	0	Plant response rating, Kochia (Kochia (Kochia scoparia) [1]; [23]): 30; Plant response rating, Barnyardgrass [2, 23]: 90; Plant response rating, Foxtail, Giant [3, 23]: 90; Plant response rating, Pigweed [4, 23]: 50; Plant response rating, Ragweed [5, 23]: 70; Plant response rating, Ryegrass, Italian [6, 23]: 70; Plant response rating, Galium [7, 24]: 60; Plant response rating, Kochia (Kochia (Kochia scoparia) [8]; [24]): 30; Plant response rating, Barnyardgrass [9, 24]: 90; Plant response rating, Blackgrass [10, 24]: 70; Plant response rating, Corn (corn (Zea mays); [24]): 30; Plant response rating, Foxtail, Giant [11, 24]: 60; Plant response rating, Pigweed [12, 24]: 0; Plant response rating, Ragweed [13, 24]: 40; Plant response rating, Ryegrass, Italian [14, 24]: 60; Plant response rating, Wheat [15, 24]: 30

From patent US12077503B2, “Substituted cyclic amides and their use as herbicides” (FMC CORPORATION, priority 2015, dated 2024)
